This note sets out measurements from ChEMBL document CHEMBL1129323, “Comparative molecular moment analysis (CoMMA): 3D-QSAR without molecular superposition” (J Med Chem, 1996).

Series [1] in a line: Hammett constant was evaluated. The format is ADME.
The target in series [2] is T1, Corticosteroid-binding globulin (Homo sapiens) (UniProt P08185).
T1 sequence (whole entry): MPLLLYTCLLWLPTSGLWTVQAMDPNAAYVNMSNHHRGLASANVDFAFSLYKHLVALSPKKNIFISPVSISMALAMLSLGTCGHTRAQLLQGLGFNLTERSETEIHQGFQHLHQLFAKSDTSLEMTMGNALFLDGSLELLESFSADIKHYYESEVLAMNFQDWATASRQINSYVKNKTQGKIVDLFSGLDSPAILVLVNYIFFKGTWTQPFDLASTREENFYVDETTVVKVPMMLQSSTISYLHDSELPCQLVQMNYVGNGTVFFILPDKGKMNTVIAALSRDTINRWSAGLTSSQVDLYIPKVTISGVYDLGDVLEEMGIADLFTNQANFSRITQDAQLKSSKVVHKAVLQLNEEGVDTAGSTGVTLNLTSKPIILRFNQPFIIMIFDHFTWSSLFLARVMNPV
Description: Binding affinity for corticosteroid binding globulin is expressed as log(1/k)

In series [3] the target is T2, Sex hormone-binding globulin (Homo sapiens) (UniProt P04278).
T2 sequence (whole entry): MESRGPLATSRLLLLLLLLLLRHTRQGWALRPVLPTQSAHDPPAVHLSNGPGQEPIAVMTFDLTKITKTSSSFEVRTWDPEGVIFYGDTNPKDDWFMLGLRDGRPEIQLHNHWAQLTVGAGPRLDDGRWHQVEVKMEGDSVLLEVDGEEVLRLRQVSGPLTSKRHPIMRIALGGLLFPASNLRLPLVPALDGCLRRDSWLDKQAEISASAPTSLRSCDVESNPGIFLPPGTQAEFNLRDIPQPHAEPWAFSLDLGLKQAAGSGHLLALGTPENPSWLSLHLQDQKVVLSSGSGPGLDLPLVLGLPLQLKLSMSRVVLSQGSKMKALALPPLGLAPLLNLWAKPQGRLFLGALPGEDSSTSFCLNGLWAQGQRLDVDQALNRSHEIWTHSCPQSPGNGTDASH
Description: Binding affinity towards testosterone binding globulin is expressed as log(1/k).

For the molecule `O=C(O)c1cccc(SC(F)(F)F)c1`, the Hammett constant in series [1] amounted to 0.4.
As for `O=C(O)c1ccc(C(F)(F)F)cc1`, the Hammett constant in series [1] was determined as 0.54.
The same measure, in the same setting: the result for `CC(C)(C)c1cccc(C(=O)O)c1` reads -0.1.
On the same count and under the same terms, the result for `O=C(O)c1ccc(C(F)(F)C(F)(F)F)cc1` reads 0.52; that for `CSc1cccc(C(=O)O)c1`, 0.15.
On to `CC(=O)[C@@]1(C)CCC2C3CCC4=CC(=O)CC[C@]4(C)C3CC[C@@]21C` (some centres not stated), for which the Log 1/K in series [2] came to 7.12.
Consider `O=C(O)c1ccc([N+](=O)[O-])cc1` [4-NITROBENZOIC ACID], for which the Hammett constant in series [1] is 0.78.
For the molecule `CC(=O)[C@H]1CC[C@H]2[C@@H]3CC=C4C[C@@H](O)CC[C@]4(C)[C@H]3CC[C@]12C`, the Log 1/K in series [2] worked out at 5.25; in series [3], 7.15.
As to `O=C(O)c1ccc(CCl)cc1`, in series [1], the Hammett constant is given as 0.12.
Same read-out and setting: the result for `O=C(O)c1cccc([N+](=O)[O-])c1` reads 0.71; that for `O=C(O)c1cccc(CBr)c1`, 0.12.
On to `CC(=O)[C@@]1(O)CC[C@H]2[C@@H]3CC=C4C[C@@H](O)CC[C@]4(C)[C@H]3CC[C@@]21C`, for which the Log 1/K in series [2] turned out to be 5; in series [3], 6.36.
`O=C(O)c1cccc(C(F)(F)F)c1`: the Hammett constant in series [1] came to 0.43.
On the same count and under the same terms, the result for `O=C(O)c1ccc(S(=O)(=O)C(F)(F)F)cc1` reads 0.93; that for `O=C(O)c1cccc(CCl)c1`, 0.11.
For `C[C@]12CCC(=O)C=C1CC[C@@H]1[C@@H]2C(=O)C[C@@]2(C)[C@H]1CC[C@]2(O)C(=O)CO`, the Log 1/K in series [2] was found to be 6.89; in series [3], 6.43.
On to `O=C(O)c1ccccc1` [BENZOIC ACID], for which the Hammett constant in series [1] worked out at 0.
`C[C@]12CC[C@H]3[C@@H](CCC4=CC(=O)CC[C@@H]43)[C@@H]1CC[C@@H]2O`: the Log 1/K in series [2] amounted to 6.14.
For `O=C(O)c1ccc(CI)cc1`, in series [1], the Hammett constant is 0.11.
On the same count and under the same terms, the result for `Cc1ccc(C(=O)O)cc1` [4-METHYLBENZOIC ACID] reads -0.17.
Still for that read-out and setting: under `Nc1ccc(C(=O)O)cc1` [AMINOBENZOIC ACID] stands -0.66.
With `C[C@]12CC[C@H](O)C[C@@H]1CC[C@@H]1[C@@H]2CC[C@]2(C)[C@@H](O)CC[C@@H]12`, the Log 1/K in series [2] came to 5; in series [3], 9.11.
On to `CSc1ccc(C(=O)O)cc1`, for which the Hammett constant in series [1] is listed as 0.
Still for that read-out and setting: under `O=C(O)c1ccc(O)cc1` [PARABEN] stands -0.37; under `O=C(O)c1cccc(CI)c1`, 0.1.
Turning to `CC(=O)[C@H]1CC[C@H]2[C@@H]3CCC4=CC(=O)CC[C@@H]4[C@H]3CC[C@]12C`, the Log 1/K in series [2] is 6.82.
`CC(=O)[C@@]1(O)[C@H](O)C[C@H]2[C@@H]3CCC4=CC(=O)CC[C@]4(C)[C@H]3CC[C@@]21C`: in series [2], the Log 1/K is 6.25.
On to `C[C@]12C[C@H](O)[C@H]3[C@@H](CCC4=CC(=O)CC[C@@]43C)[C@@H]1CC[C@@H]2C(=O)CO`, for which the Log 1/K came out at 7.88 in series [2] and 6.34 in series [3].
In series [1], `O=C(O)c1cccc(OC(F)(F)F)c1` yielded a Hammett constant of 0.38.
In the case of `C[C@]12CCC(=O)C=C1CC[C@@H]1[C@@H]2CC[C@]2(C)C(=O)CC[C@@H]12`, the figures for the Log 1/K in series [2] and in series [3] were 5.76 and 7.46, respectively.
In series [1], `CCc1ccc(C(=O)O)cc1` came in with a Hammett constant of -0.15.
In series [1], `CS(=O)(=O)c1cccc(C(=O)O)c1` displayed a Hammett constant of 0.6.
The molecule `O=C(O)c1ccc(F)cc1` returned a Hammett constant in series [1] of 0.06.
The same measure, in the same setting: the result for `CC(C)(C)c1ccc(C(=O)O)cc1` reads -0.2.
Take `CC(=O)[C@@]1(O)CC[C@H]2[C@@H]3CCC4=CC(=O)CC[C@]4(C)[C@H]3CC[C@@]21C`: the results for the Log 1/K in series [2] and in series [3] were 7.74 and 7, respectively.
As for `C[C@@H]1C[C@@]2(C)C(=CC1=O)CC[C@H]1[C@@H]3CC[C@](O)(C(=O)CO)[C@@]3(C)C[C@H](O)[C@@]12F`, the Log 1/K in series [2] amounted to 5.8.
Consider `CCc1cccc(C(=O)O)c1`, for which the Hammett constant in series [1] is -0.07.
The molecule `O=C(O)c1cccc(O)c1` [3-HYDROXYBENZOIC ACID] gave a Hammett constant in series [1] of 0.12.
Molecule `O=C(O)c1cccc(F)c1` gave a Hammett constant in series [1] of 0.34.
The same measure, in the same setting: the result for `COc1ccc(C(=O)O)cc1` [p-ANISIC ACID] reads -0.27.
On the same count and under the same terms, under `COc1cccc(C(=O)O)c1` stands 0.12; under `O=C(O)c1cccc(Cl)c1`, 0.37.
Same read-out and setting: the result for `O=C(O)c1cccc(Br)c1` reads 0.39.
On to `CC(=O)[C@H]1CC[C@H]2[C@@H]3CCC4=CC(=O)CC[C@]4(C)[C@H]3C(=O)C[C@]12C`, for which the Log 1/K in series [2] came to 6.78.
Still for that read-out and setting: the result for `C[C@]12C=CC(=O)C=C1CC[C@@H]1[C@@H]2[C@@H](O)C[C@@]2(C)[C@H]1CC[C@]2(O)C(=O)CO` reads 7.51.
For `O=C(O)c1cccc(I)c1`, the Hammett constant in series [1] stood at 0.35.
In turn, `C[C@]12C[C@@H](O)[C@H]3[C@@H](CCC4=CC(=O)CC[C@@]43C)[C@@H]1CC[C@@H]2C(=O)CO` gave a Log 1/K in series [2] of 7.2.
As for `Nc1cccc(C(=O)O)c1` [3-AMINOBENZOIC ACID], the Hammett constant in series [1] is recorded as -0.16.
Still for that read-out and setting: under `O=C(O)c1ccc(Br)cc1` stands 0.23.
Consider `CC(=O)[C@H]1CC[C@H]2[C@@H]3CCC4=CC(=O)CC[C@]4(C)[C@H]3CC[C@]12C`, for which the Log 1/K in series [2] was 7.38; in series [3], 6.94.
In the same order, the values of `C[C@]12CC[C@H](O)CC1=CC[C@@H]1[C@@H]2CC[C@]2(C)C(=O)CC[C@@H]12` are 5 and 7.82.
For `C[C@]12CCC(=O)C=C1CC[C@@H]1[C@@H]2CC[C@@]2(C)[C@H]1CC[C@]2(O)C(=O)CO`, the results for the Log 1/K in series [2] and in series [3] were 7.88 and 7.2, respectively.
Regarding `O=C(O)c1ccc(OC(F)(F)F)cc1`, the Hammett constant in series [1] was determined as 0.35.
Take `O=C(O)c1cccc(C(F)(F)C(F)(F)F)c1`: the Hammett constant in series [1] came out at 0.47.
Still for that read-out and setting: under `Cc1cccc(C(=O)O)c1` stands -0.07.
As to `O=C(O)c1cccc(S(=O)(=O)C(F)(F)F)c1`, the Hammett constant in series [1] stood at 0.79.
As for `C[C@]12CC[C@H]3[C@@H](CCC4=CC(=O)CC[C@@]43C)[C@@H]1CC[C@@H]2O`, the results for the Log 1/K in series [2] and in series [3] were 6.72 and 9.2, respectively.
For the molecule `CS(=O)(=O)c1ccc(C(=O)O)cc1`, the Hammett constant in series [1] was 0.72.
As to `O=C(O)c1ccc(SC(F)(F)F)cc1`, the Hammett constant in series [1] came to 0.5.
As for `C[C@]12CCC(=O)C=C1CC[C@@H]1[C@@H]2[C@@H](O)C[C@@]2(C)[C@H]1CC[C@]2(O)C(=O)CO`, the Log 1/K in series [2] was 7.88; in series [3], 6.2.
`O=C(O)c1cccc(S(=O)(=O)F)c1` displayed a Hammett constant in series [1] of 0.8.
In the case of `C[C@]12CC[C@@H]3c4ccc(O)cc4CC[C@H]3[C@@H]1C[C@@H](O)[C@@H]2O`, the Log 1/K came out at 5 in series [2] and 6.63 in series [3].
`O=C(O)c1ccc(CBr)cc1` yielded a Hammett constant in series [1] of 0.14.
Turning to `N#Cc1ccc(C(=O)O)cc1`, the Hammett constant in series [1] turned out to be 0.66.
In the case of `C[C@]12CCC(=O)C=C1CC[C@@H]1[C@@H]2[C@@H](O)C[C@]2(C=O)[C@@H](C(=O)CO)CC[C@@H]12`, the Log 1/K came out at 6.28 in series [2] and 5.32 in series [3].
As for `O=C(O)c1ccc(I)cc1`, the Hammett constant in series [1] is 0.18.
The molecule `CC(=O)OCC(=O)[C@@]1(O)CCC2C3CCC4=CC(=O)CC[C@]4(C)C3C(O)C[C@@]21C` (some centres not stated) displayed a Log 1/K in series [2] of 7.55.
On to `O=C(O)c1cccc(S)c1`, for which, in series [1], the Hammett constant was 0.25.
On the same count and under the same terms, the result for `N#Cc1cccc(C(=O)O)c1` reads 0.56.
For `C[C@]12CC[C@H]3[C@@H](CCC4=CC(=O)CC[C@@]43C)[C@@H]1CC[C@@H]2C(=O)CO`, the Log 1/K in series [2] was found to be 7.65; in series [3], 7.38.
In the case of `O=C(O)c1ccc(S(=O)(=O)F)cc1`, the Hammett constant in series [1] amounted to 0.91.
In series [1], `O=C(O)c1ccc(S)cc1` came in with a Hammett constant of 0.15.
